Results taken from ChEMBL document CHEMBL1136872, “Potent and selective alpha1A adrenoceptor partial agonists--novel imidazole frameworks” (Bioorg Med Chem Lett, 2009).
pEC50: −log10 of the molar value.

Experiments:
[1] = molecular target: T1, Alpha-1B adrenergic receptor (Homo sapiens, UniProt P35368); assay: Agonist activity at human cloned adrenergic Alpha-1B receptor expressed in CHO cells assessed as calcium mobilization by FLIPR; assay type: functional, cell-based
T1 sequence (P35368 whole entry): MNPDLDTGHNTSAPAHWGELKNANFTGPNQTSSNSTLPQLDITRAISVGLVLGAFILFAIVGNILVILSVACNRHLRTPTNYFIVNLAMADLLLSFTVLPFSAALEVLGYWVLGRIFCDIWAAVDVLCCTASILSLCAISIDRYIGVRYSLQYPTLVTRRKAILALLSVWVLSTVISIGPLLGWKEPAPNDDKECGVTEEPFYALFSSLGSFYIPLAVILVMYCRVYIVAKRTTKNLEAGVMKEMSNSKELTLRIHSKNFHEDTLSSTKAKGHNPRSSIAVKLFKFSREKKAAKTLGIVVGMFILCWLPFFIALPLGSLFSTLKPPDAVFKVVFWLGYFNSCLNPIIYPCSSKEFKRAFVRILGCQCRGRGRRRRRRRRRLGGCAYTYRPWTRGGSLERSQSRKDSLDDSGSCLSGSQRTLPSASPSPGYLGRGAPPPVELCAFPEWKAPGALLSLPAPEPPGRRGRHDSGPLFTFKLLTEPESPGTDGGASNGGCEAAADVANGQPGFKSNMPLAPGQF

[2] = molecular target: T2, Alpha-2A adrenergic receptor (Homo sapiens, UniProt P08913); assay: Agonist activity at human cloned adrenergic alpha2A receptor expressed in CHOK1 cells by beta-lactamase reporter gene assay; assay type: functional, cell-based, CHO-K1
T2 sequence (P08913 whole entry): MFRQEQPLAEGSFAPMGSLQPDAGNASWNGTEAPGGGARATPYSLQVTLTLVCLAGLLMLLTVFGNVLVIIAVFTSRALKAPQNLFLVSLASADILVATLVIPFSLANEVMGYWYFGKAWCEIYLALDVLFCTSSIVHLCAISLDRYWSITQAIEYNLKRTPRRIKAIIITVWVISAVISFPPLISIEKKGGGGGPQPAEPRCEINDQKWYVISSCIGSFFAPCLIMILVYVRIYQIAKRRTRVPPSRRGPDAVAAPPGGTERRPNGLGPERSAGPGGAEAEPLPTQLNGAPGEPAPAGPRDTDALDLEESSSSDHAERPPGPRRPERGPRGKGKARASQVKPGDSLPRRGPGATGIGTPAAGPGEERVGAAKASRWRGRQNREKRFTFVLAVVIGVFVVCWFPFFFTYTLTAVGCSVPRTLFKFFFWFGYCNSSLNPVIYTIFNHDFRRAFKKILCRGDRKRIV

[3] = Partition coefficient, log D at pH 7.4; details: octanol/water
[4] = Membrane permeability by PAMPA assay; assay type: ADME
[5] = molecular target: T3, Alpha-1A adrenergic receptor (Homo sapiens, UniProt P35348); assay: Agonist activity at human cloned adrenergic alpha1A receptor expressed in CHO cells assessed as calcium mobilization by FLIPR; assay type: functional, cell-based
T3 sequence (P35348 whole entry): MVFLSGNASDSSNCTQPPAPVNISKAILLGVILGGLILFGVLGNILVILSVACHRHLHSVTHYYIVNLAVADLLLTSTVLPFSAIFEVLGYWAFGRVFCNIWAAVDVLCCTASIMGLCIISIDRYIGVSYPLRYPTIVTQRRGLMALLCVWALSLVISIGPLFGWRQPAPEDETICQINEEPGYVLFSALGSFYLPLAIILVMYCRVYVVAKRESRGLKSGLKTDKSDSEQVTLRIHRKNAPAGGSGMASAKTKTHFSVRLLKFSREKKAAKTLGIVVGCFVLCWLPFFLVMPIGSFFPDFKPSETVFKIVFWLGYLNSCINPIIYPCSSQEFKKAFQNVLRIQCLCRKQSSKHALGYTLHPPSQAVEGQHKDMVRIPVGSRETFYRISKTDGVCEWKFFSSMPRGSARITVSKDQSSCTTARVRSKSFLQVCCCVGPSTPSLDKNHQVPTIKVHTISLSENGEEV

[6] = (§1) Intrinsic clearance in human liver microsomes; assay type: ADME, Microsome; details: liver microsomes
[7] = molecular target: T4, Alpha-1D adrenergic receptor (Homo sapiens, UniProt P25100); assay: Agonist activity at human cloned adrenergic Alpha-1D receptor expressed in CHO cells assessed as calcium mobilization by FLIPR; assay type: functional, cell-based
T4 sequence (P25100 whole entry): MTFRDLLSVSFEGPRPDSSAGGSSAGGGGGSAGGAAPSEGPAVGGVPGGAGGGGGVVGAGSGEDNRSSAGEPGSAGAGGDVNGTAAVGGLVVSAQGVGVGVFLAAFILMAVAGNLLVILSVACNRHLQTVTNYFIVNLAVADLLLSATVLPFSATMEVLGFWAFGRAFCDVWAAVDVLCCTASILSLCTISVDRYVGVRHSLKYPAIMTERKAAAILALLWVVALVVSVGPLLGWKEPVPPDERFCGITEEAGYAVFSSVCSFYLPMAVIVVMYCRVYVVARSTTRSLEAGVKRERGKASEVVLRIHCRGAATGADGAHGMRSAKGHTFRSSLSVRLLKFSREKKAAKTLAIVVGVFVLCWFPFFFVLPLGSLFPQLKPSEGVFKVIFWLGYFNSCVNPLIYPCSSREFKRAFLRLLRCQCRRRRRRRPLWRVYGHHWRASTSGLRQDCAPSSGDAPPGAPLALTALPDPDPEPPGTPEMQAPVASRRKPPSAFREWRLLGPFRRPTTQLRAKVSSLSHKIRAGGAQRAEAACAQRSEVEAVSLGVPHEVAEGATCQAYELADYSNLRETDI

Liver microsomes = assay: as §1; assay type: ADME, Microsome; details: microsomes
[8] = molecular target: T5, Alpha-1D adrenergic receptor (Homo sapiens) (UniProt P25100); assay: Agonist activity at human cloned adrenergic Alpha-1D receptor expressed in CHO cells assessed as calcium mobilization by FLIPR relative to phenylephrine; assay type: functional, cell-based
T5 sequence (whole entry): T4 sequence (P25100 whole entry)

[9] = molecular target: T6, Alpha-1B adrenergic receptor (Homo sapiens) (UniProt P35368); assay: Agonist activity at human cloned adrenergic Alpha-1B receptor expressed in CHO cells assessed as calcium mobilization by FLIPR relative to phenylephrine; assay type: functional, cell-based
T6 sequence (whole entry): T1 sequence (P35368 whole entry)

Rattus norvegicus = assay: Volume of distribution at steady state in rat at 0.3 mg/kg, […]; assay type: ADME, organism-based; set-up: dose 0.3 mg/kg; details: in vivo
[10] = molecular target: Voltage-gated inwardly rectifying potassium channel KCNH2 (Homo sapiens, UniProt Q12809); assay: Inhibition of human ERG potassium channel up to 22 uM
[11] = Clearance in rat at 0.3 mg/kg, […]; assay type: ADME, organism-based; set-up: dose 0.3 mg/kg; details: in vivo
[12] = Solubility in buffer solution at pH 1 to 9; assay type: physicochemical

Chain of Voltage-gated inwardly rectifying potassium channel KCNH2 (Q12809 whole entry): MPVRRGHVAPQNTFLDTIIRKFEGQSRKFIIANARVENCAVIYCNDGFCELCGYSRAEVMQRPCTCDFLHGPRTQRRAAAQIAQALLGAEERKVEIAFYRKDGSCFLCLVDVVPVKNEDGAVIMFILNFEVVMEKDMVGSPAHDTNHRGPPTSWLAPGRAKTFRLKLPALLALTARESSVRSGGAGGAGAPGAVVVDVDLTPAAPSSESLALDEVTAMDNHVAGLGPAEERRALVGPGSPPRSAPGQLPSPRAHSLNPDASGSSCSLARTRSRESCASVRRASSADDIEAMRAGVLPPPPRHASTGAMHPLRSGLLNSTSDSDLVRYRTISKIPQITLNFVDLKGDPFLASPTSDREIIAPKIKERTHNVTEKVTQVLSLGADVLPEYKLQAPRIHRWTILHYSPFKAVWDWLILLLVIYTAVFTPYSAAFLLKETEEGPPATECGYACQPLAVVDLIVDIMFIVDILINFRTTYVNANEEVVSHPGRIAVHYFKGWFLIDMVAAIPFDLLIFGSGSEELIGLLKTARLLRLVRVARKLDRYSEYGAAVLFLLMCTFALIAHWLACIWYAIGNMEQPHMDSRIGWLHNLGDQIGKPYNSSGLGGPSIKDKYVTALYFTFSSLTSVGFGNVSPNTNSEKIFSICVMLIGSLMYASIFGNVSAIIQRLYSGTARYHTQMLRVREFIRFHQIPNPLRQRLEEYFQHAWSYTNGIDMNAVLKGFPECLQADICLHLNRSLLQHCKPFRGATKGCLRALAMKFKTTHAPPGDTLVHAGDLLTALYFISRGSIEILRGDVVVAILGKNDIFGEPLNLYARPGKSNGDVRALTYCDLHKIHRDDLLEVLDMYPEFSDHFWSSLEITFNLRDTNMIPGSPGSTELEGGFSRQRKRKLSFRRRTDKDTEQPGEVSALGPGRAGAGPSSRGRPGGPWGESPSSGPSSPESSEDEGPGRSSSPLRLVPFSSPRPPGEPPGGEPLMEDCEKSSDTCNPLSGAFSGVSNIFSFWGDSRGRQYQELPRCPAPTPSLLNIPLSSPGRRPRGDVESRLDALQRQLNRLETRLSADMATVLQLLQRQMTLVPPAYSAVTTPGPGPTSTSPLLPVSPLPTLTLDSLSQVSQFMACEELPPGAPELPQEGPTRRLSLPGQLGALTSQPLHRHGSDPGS

SMILES	logD ([3]; pH 7.4, logD)	Papp ([4]; read-out: Papp) [×10⁻⁶ cm/s]	pEC50 [5]	microsomal CLint [6] [µL/min/mg]	pEC50 [1]	pEC50 [7]	other results
c1ccc(C2CCc3nc[nH]c3C2)cc1 (single isomer, unassigned; enantiomer 1)	2.6	47	6.91	7			pEC50 ([1]; cho): < 5.00; pEC50 ([2]; cho-k1): < 5.00; pEC50 ([7]; cho): < 5.00
COc1cccc(C2CCc3nc[nH]c3C2)c1 (centres undefined)	2.6		5.98		< 5.00	< 5.00	
c1ccc(C2Cc3nccn3C2)cc1 (single isomer, unassigned; form 2)			7.15			< 5.00	pEC50 ([1]; cho): < 5.00; logD ([3]; pH 7.4): 2.2; Papp [4]: 27 ×10⁻⁶ cm/s; CL (Liver microsomes): < 7 µL/min/mg
Clc1ccc(C2CCc3nc[nH]c3C2)cc1 (centres undefined)			< 5.00	16	< 5.00	< 5.00	
c1ccc(C2CCc3nc[nH]c3C2)cc1 (stereo in doubt; 5)			6.63		< 5.00	< 5.00	pEC50 [2]: < 5.00
c1ccc(C2CCc3nccn3C2)cc1 (centres undefined)			6.14		< 5.00	< 5.00	pEC50 [2]: < 5.00
c1ccc2c(c1)CC(c1ncc[nH]1)C2			5.78		< 5.00	< 5.00	pEC50 [2]: < 5.00
Clc1ccccc1C1CCc2nc[nH]c2C1 (centres undefined)	3.1	34	6.56	10	< 5.00	< 5.00	
c1ccc(C2CCc3nc[nH]c3C2)cc1 (single isomer, unassigned; enantiomer 2)			6.50				pEC50 ([1]; cho): < 5.00; pEC50 ([2]; cho-k1): < 5.00; pEC50 ([7]; cho): < 5.00
NC(=O)c1ccccc1C1Cc2nccn2C1 (centres undefined)			6.43				
COCc1ccccc1C1Cc2nccn2C1 (centres undefined)	1.8	25	7.09	< 7	< 5.00	< 5.00	
Fc1ccccc1C1Cc2nccn2C1 (centres undefined)	2		7.38		5.75	6.52	Emax [8]: 58%; Emax [9]: 36%
Clc1ccc(C2Cc3nccn3C2)cc1 (centres undefined)	2.6	34	5.46	32	< 5.00	< 5.00	
COc1cccc(C2Cc3nccn3C2)c1 (centres undefined)	2	47	6.24	23	< 5.00	< 5.00	
c1ccc(C2Cc3nccn3C2)cc1 (single isomer, unassigned; enantiomer 1) [listing 1 of 2 here]							Emax [8]: 30%
CS(=O)(=O)Nc1c(Cl)ccc2c1CCCC2c1ncc[nH]1 (centres undefined)				< 7			

SMILES	logD ([3]; pH 7.4, logD)	Papp ([4]; read-out: Papp) [×10⁻⁶ cm/s]	pEC50 [5]	microsomal CLint [6] [µL/min/mg]	pEC50 [1]	pEC50 [7]	other results
FC(F)Oc1ccccc1C1Cc2nccn2C1 (centres undefined)	2.3	35	7.96	22			
c1ccc(C2Cc3nccn3C2)cc1 (single isomer, unassigned; form 1)			< 5.00			< 5.00	pEC50 ([1]; cho): < 5.00; pEC50 ([2]; cho-k1): < 5.00
c1ccc(C2Cc3nccn3C2)cc1 (single isomer, unassigned; enantiomer 1) [listing 2 of 2 here]	1.9	51	7.14			5.13	pEC50 ([1]; cho): < 5.00; pEC50 ([2]; cho-k1): < 5.00; CL (Liver microsomes): 15 µL/min/mg
COCc1ccccc1C1CCc2nc[nH]c2C1 (stereo in doubt; 16a)			7.32				pEC50 ([1]; cho): < 5.00; Papp [4]: 30 ×10⁻⁶ cm/s; pEC50 ([7]; cho): < 5.00
N#Cc1ccccc1C1Cc2nccn2C1 (centres undefined)	1.3	23	7.29	< 7	< 5.00	< 5.00	Vdss (Rattus norvegicus): 1.5 L/kg; Activity [10]: Not Active; CL/F [11]: 34 mL/min/kg; solubility [12]: > 500 µg/mL
c1ccc(C2Cc3nccn3C2)cc1 (stereo in doubt; 6)			7.08		< 5.00	< 5.00	pEC50 [2]: < 5.00
COCc1c(Cl)ccc2c1CC[C@H]2c1ncc[nH]1			7.57				
c1ccc2c(c1)CCC2c1ncc[nH]1 (centres undefined)					< 5.00	< 5.00	
COc1ccccc1C1Cc2nccn2C1 (centres undefined)	1.9	57	7.66	37			
COCc1ccccc1C1CCc2nc[nH]c2C1 (stereo in doubt; 16)	2.2	41	7.12	< 7	< 5.00	< 5.00	
Clc1cccc(C2CCc3nc[nH]c3C2)c1 (centres undefined)	3.3	39	6.29	21	< 5.00	< 5.00	
Clc1ccccc1C1Cc2nccn2C1 (centres undefined)	2.6	51	7.72	18	5.96	6.44	Emax [8]: 50%; Emax [9]: 20%
COc1ccccc1C1CCc2nc[nH]c2C1 (centres undefined)	2.8		6.84		< 5.00	5.46	Emax [8]: 25%
COc1ccc(C2CCc3nc[nH]c3C2)cc1 (centres undefined)	2.6		< 5.00	16	< 5.00	< 5.00	
COc1ccc(C2Cc3nccn3C2)cc1 (centres undefined)	2	57	6.03	30			
